Paper PMC9930429, “Wogonin attenuates the pathogenicity of Streptococcus pneumoniae by double‐target inhibition of Pneumolysin and Sortase A” (Journal of Cellular and Molecular Medicine, 2023)

Molecular target: Pneumolysin (PLY) (Streptococcus pneumoniae, UniProt Q04IN8)
Assay: biochemical

Chain of Pneumolysin (PLY) (Q04IN8 2-471 limits assumed): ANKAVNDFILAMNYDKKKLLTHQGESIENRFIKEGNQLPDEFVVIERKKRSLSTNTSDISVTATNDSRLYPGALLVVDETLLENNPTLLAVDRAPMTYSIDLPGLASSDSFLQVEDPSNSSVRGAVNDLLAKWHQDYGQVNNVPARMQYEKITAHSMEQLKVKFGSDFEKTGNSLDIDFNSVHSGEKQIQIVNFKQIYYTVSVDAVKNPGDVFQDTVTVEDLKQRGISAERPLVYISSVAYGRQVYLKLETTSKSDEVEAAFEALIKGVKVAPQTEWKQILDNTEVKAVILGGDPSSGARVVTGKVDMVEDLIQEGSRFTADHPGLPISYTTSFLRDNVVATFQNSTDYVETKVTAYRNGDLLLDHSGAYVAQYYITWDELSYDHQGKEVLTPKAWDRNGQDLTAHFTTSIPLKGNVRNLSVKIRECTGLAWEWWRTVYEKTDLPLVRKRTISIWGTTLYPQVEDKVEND

**Q.** With COc1c(O)cc(O)c2c(=O)cc(-c3ccccc3)oc12 [wogonin] as the molecule, how does the IC50 read?
**A.** Its IC50 is 186 µM.
